Results reported in BindingDB's records for doi:10.1021/acschembio.6b00156 (Helmholtz-Institute For Pharmaceutical Research Saarland, 2016).

Biological target: Quinolone signal response protein (Pseudomonas aeruginosa, UniProt A0A072ZMX8)
Assay: Isothermal Titration Calorimetry (ITC)
Details: 14 °C
Description: ITC titrations were performed using an ITC200 instrument (Microcal Inc.,Malvern). DMSO stock solutions (20 mM) of fragments were diluted 1:20 (v/v) into ITC titration buffer (50 mM tricine, 2 mM MnCl2, pH = 8.5) to give a 1 mM final compound concentration at 5% (v/v) DMSO. Aliquots of the same buffer batch (stored at […]) were used as for protein storage to avoid a buffer mismatch. H6PqsE was diluted in the same buffer to 100 μM, and DMSO concentration was adjusted to 5% (v/v). Titrations were carried out at 298 K using 19 injections of 2 μL every 180 s. Areas under the peaks were integrated. Baseline peaks at the endof a titration accounting for the heat of dilution and mixing were subtracted from the measurement. Data were fitted to a 1:1 binding model (MicroCal Origin 7 software).

Sequence of Quinolone signal response protein (A0A072ZMX8 whole entry): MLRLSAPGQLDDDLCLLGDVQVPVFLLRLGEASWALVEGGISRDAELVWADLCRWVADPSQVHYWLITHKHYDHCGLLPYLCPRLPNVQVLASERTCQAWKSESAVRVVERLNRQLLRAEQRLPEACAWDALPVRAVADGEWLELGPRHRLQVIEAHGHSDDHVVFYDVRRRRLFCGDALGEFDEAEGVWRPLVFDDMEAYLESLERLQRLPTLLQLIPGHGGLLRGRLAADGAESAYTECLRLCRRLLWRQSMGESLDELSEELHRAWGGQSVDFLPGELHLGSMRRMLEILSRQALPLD

Row | Compound | Kd [µM]
1 | O=C(O)c1ccccc1-c1cccnc1 [CC41801 (1)] | 0.9
2 | Cc1ccsc1C(=O)O [AC30341 (3)] | 19.6
